One block for each substance: values may come before it.
Columns and labels:
[1] = Ratio of drug level in tumor to blood of Balb/c mouse allografted with mouse B16F10 cells using 99mTc(CO)3-labeled compound at 10 to 12 MBq/kg, iv measured at 4 hrs; format: ADME, organism-based, Tumor/tissue
[2] = Drug uptake in urine of Balb/c mouse allografted with mouse B16F10 cells using 99mTc(CO)3-labeled compound at 10 to 12 MBq/kg, iv measured at 4 hrs; format: ADME, organism-based; settings: in vivo
[3] = Drug uptake in mouse B16F10 cells using 99mTc(CO)3-labeled compound at 15 to 20 MBq/ml after 240 mins by gamma scintillation counting method; format: ADME, cell-based; settings: b16-f10, 4 h
[4] = Drug uptake in heart of Balb/c mouse allografted with mouse B16F10 cells using 99mTc(CO)3-labeled compound at 10 to 12 MBq/kg, iv measured at 4 hrs; format: ADME, organism-based; settings: in vivo
[5] = Drug uptake in spleen of Balb/c mouse allografted with mouse B16F10 cells using 99mTc(CO)3-labeled compound at 10 to 12 MBq/kg, iv measured at 2 hrs; format: ADME, organism-based; settings: in vivo
[6] = Drug uptake in urinary bladder of Balb/c mouse allografted with mouse B16F10 cells using 99mTc(CO)3-labeled compound at 4 to 8 MBq, iv measured at 4 hrs by scintigraphic imaging method; format: ADME, organism-based; settings: in vivo
[7] = Drug uptake in kidney of Balb/c mouse allografted with mouse B16F10 cells using 99mTc(CO)3-labeled compound at 10 to 12 MBq/kg, iv measured at 2 hrs; format: ADME, organism-based; settings: in vivo
[8] = n-Octanol-phosphate buffer partition co-efficient, log P of 99mTc(CO)3-labeled compound at 2 to 3 KBq after 1 min by gamma scintillation counting method; format: physicochemical
[9] = Ratio of drug level in tumor to muscle of Balb/c mouse allografted with mouse B16F10 cells using 99mTc(CO)3-labeled compound at 10 to 12 MBq/kg, iv measured at 2 hrs; format: ADME, organism-based, Tumor/tissue; settings: in vivo
[10] = Drug uptake in kidney of Balb/c mouse allografted with mouse B16F10 cells using 99mTc(CO)3-labeled compound at 10 to 12 MBq/kg, iv measured at 4 hrs; format: ADME, organism-based; settings: in vivo
[11] = Drug uptake in blood of Balb/c mouse allografted with mouse B16F10 cells using 99mTc(CO)3-labeled compound at 10 to 12 MBq/kg, iv measured at 4 hrs; format: ADME, organism-based; settings: in vivo
[12] = Drug uptake in liver of Balb/c mouse allografted with mouse B16F10 cells using 99mTc(CO)3-labeled compound at 10 to 12 MBq/kg, iv measured at 4 hrs; format: ADME, organism-based; settings: in vivo
[13] = Drug uptake in spleen of Balb/c mouse allografted with mouse B16F10 cells using 99mTc(CO)3-labeled compound at 10 to 12 MBq/kg, iv measured at 4 hrs; format: ADME, organism-based; settings: in vivo
[14] = Drug uptake in liver of Balb/c mouse allografted with mouse B16F10 cells using 99mTc(CO)3-labeled compound at 10 to 12 MBq/kg, iv measured at 2 hrs; format: ADME, organism-based; settings: in vivo
[15] = Drug uptake in urine of Balb/c mouse allografted with mouse B16F10 cells using 99mTc(CO)3-labeled compound at 10 to 12 MBq/kg, iv measured at 2 hrs; format: ADME, organism-based; settings: in vivo
[16] = Drug uptake in mouse B16F10 cells using 99mTc(CO)3-labeled compound at 15 to 20 MBq/ml after 30 mins by gamma scintillation counting method relative to total added activity; format: ADME, cell-based; settings: b16-f10, 0.5 h
[17] = Drug uptake in intestine of Balb/c mouse allografted with mouse B16F10 cells using 99mTc(CO)3-labeled compound at 10 to 12 MBq/kg, iv measured at 4 hrs; format: ADME, organism-based; settings: in vivo
[18] = Hemolytic activity in rat erythrocytes at 100 uM after 1 hr relative to control; format: ADME, cell-based, Erythrocyte; settings: read-out: Activity
[19] = Drug uptake in tumor of Balb/c mouse allografted with mouse B16F10 cells using 99mTc(CO)3-labeled compound at 4 to 8 MBq, iv measured at 4 hrs by scintigraphic imaging method; format: ADME, organism-based, Neoplasm; settings: in vivo
[20] = Drug uptake in intestine of Balb/c mouse allografted with mouse B16F10 cells using 99mTc(CO)3-labeled compound at 10 to 12 MBq/kg, iv measured at 2 hrs; format: ADME, organism-based; settings: in vivo
[21] = Ratio of drug level in tumor to blood of Balb/c mouse allografted with mouse B16F10 cells using 99mTc(CO)3-labeled compound at 10 to 12 MBq/kg, iv measured at 2 hrs; format: ADME, organism-based, Tumor/tissue
[22] = Drug uptake in lung of Balb/c mouse allografted with mouse B16F10 cells using 99mTc(CO)3-labeled compound at 10 to 12 MBq/kg, iv measured at 2 hrs; format: ADME, organism-based; settings: in vivo
[23] = Hemolytic activity in rat erythrocytes up to 50 uM after 1 hr relative to control; format: ADME, cell-based, Erythrocyte; settings: read-out: Activity
[24] = Drug uptake in heart of Balb/c mouse allografted with mouse B16F10 cells using 99mTc(CO)3-labeled compound at 10 to 12 MBq/kg, iv measured at 2 hrs; format: ADME, organism-based; settings: in vivo
[25] = Metabolic stability in rat serum assessed as parent compound remaining using 99mTc(CO)3-labeled compound after 24 hrs by TLC method; format: ADME, cell-free; settings: read-out: Stability
[26] = Drug uptake in liver of Balb/c mouse allografted with mouse B16F10 cells using 99mTc(CO)3-labeled compound at 4 to 8 MBq, iv measured at 4 hrs by scintigraphic imaging method; format: ADME, organism-based; settings: in vivo
[27] = Drug uptake in kidney of Balb/c mouse allografted with mouse B16F10 cells using 99mTc(CO)3-labeled compound at 4 to 8 MBq, iv measured at 4 hrs by scintigraphic imaging method; format: ADME, organism-based; settings: in vivo
[28] = Drug uptake in blood of Balb/c mouse allografted with mouse B16F10 cells using 99mTc(CO)3-labeled compound at 10 to 12 MBq/kg, iv measured at 2 hrs; format: ADME, organism-based; settings: in vivo
[29] = Ratio of drug level in tumor to muscle of Balb/c mouse allografted with mouse B16F10 cells using 99mTc(CO)3-labeled compound at 10 to 12 MBq/kg, iv measured at 4 hrs; format: ADME, organism-based, Tumor/tissue; settings: in vivo
[30] = Drug uptake in stomach of Balb/c mouse allografted with mouse B16F10 cells using 99mTc(CO)3-labeled compound at 10 to 12 MBq/kg, iv measured at 2 hrs; format: ADME, organism-based; settings: in vivo
[31] = Drug degradation in histidine solution using 99mTc(CO)3-labeled compound after 24 hrs by TLC method; format: physicochemical; settings: read-out: Drug degradation
[32] = Drug uptake in stomach of Balb/c mouse allografted with mouse B16F10 cells using 99mTc(CO)3-labeled compound at 10 to 12 MBq/kg, iv measured at 4 hrs; format: ADME, organism-based; settings: in vivo
[33] = Drug uptake in mouse B16F10 cells using 99mTc(CO)3-labeled compound at 15 to 20 MBq/ml after 30 mins by gamma scintillation counting method; format: ADME, cell-based; settings: b16-f10, 0.5 h
[34] = Drug uptake in lung of Balb/c mouse allografted with mouse B16F10 cells using 99mTc(CO)3-labeled compound at 10 to 12 MBq/kg, iv measured at 4 hrs; format: ADME, organism-based; settings: in vivo
[35] = Drug uptake in tumor muscle of Balb/c mouse allografted with mouse B16F10 cells using 99mTc(CO)3-labeled compound at 10 to 12 MBq/kg, iv measured at 2 hrs; format: ADME, organism-based; settings: in vivo
[36] = Drug uptake in muscle of Balb/c mouse allografted with mouse B16F10 cells using 99mTc(CO)3-labeled compound at 10 to 12 MBq/kg, iv measured at 2 hrs; format: ADME, organism-based, Muscle tissue; settings: in vivo
[37] = Drug uptake in tumor muscle of Balb/c mouse allografted with mouse B16F10 cells using 99mTc(CO)3-labeled compound at 10 to 12 MBq/kg, iv measured at 4 hrs; format: ADME, organism-based; settings: in vivo
[38] = Drug uptake in muscle of Balb/c mouse allografted with mouse B16F10 cells using 99mTc(CO)3-labeled compound at 10 to 12 MBq/kg, iv measured at 4 hrs; format: ADME, organism-based, Muscle tissue; settings: in vivo
[39] = Drug uptake in mouse B16F10 cells using 99mTc(CO)3-labeled compound at 15 to 20 MBq/ml after 240 mins by gamma scintillation counting method relative to total added activity; format: ADME, cell-based; settings: b16-f10, 4 h
[40] = Stability in saline assessed as parent compond remaining using 99mTc(CO)3-labeled compound after 24 hrs by TLC method; format: physicochemical; settings: read-out: Stability
[41] = Drug uptake in gastrointestinal tract of Balb/c mouse allografted with mouse B16F10 cells using 99mTc(CO)3-labeled compound at 4 to 8 MBq, iv measured at 4 hrs by scintigraphic imaging method; format: ADME, organism-based; settings: in vivo

- Kp at 4 h [1]: 1.82
- Drug uptake [2]: 49.26 %ID/ml
- Drug uptake [3]: 83%
- Drug uptake [4]: 0.06 % ID/g
- Drug uptake [5]: 0.63 % ID/g
- Drug uptake [6]: Active
- Drug uptake [7]: 17.15 % ID/g
- logP at 1 min [8]: -0.978
- Ratio [9]: 10.11
- Drug uptake [10]: 15.76 % ID/g
- Drug uptake [11]: 1.65 %ID/ml
- Drug uptake [12]: 14.64 % ID/g
- Drug uptake [13]: 0.45 % ID/g
- Drug uptake [14]: 18.15 % ID/g
- Drug uptake [15]: 42.15 %ID/ml
- Drug uptake [16]: 4.76%
- Drug uptake [17]: 8.32 % ID/g
- Drug uptake [19]: Active
- Drug uptake [20]: 7.61 % ID/g
- Kp at 2 h [21]: 0.97
- Drug uptake [22]: 0.33 % ID/g
- Drug uptake [24]: 0.08 % ID/g
- remaining at 24 h [25]: ≥ 92%
- Drug uptake [26]: Active
- Drug uptake [27]: Active
- Drug uptake [28]: 1.88 %ID/ml
- Ratio [29]: 18.81
- Drug uptake [30]: 0.23 % ID/g
- degraded at 24 h [31]: 5%
- Drug uptake [32]: 0.19 % ID/g
- Drug uptake [33]: 41.41%
- Drug uptake [34]: 0.24 % ID/g
- Drug uptake [35]: 1.83 % ID/g
- Drug uptake [36]: 0.18 % ID/g
- Drug uptake [37]: 3.01 % ID/g
- Drug uptake [38]: 0.16 % ID/g
- Drug uptake [39]: 9.59%
- remaining at 24 h [40]: ≥ 92%
- Drug uptake [41]: Active
Substance: H-HYKHGK-NH2
- hemolysis at 1 h, 100 µM [18]: 7 to 9%
- hemolysis at 1 h [23]: 5 to 6%

- Kp at 4 h [1]: 0.83
- Drug uptake [2]: 45.95 %ID/ml
- Drug uptake [3]: 76%
- Drug uptake [4]: 0.07 % ID/g
- Drug uptake [5]: 0.76 % ID/g
- Drug uptake [6]: Active
- Drug uptake [7]: 16.12 % ID/g
- logP at 1 min [8]: -1.34
- Ratio [9]: 5.75
- Drug uptake [10]: 13.91 % ID/g
- Drug uptake [11]: 1.31 %ID/ml
- Drug uptake [12]: 18.89 % ID/g
- Drug uptake [13]: 0.54 % ID/g
- Drug uptake [14]: 21.17 % ID/g
- Drug uptake [15]: 41.15 %ID/ml
- Drug uptake [16]: 3.99%
- Drug uptake [17]: 6.3 % ID/g
- Drug uptake [19]: Not Active
- Drug uptake [20]: 7.5 % ID/g
- Kp at 2 h [21]: 0.61
- Drug uptake [22]: 0.25 % ID/g
- Drug uptake [24]: 0.09 % ID/g
- remaining at 24 h [25]: ≥ 92%
- Drug uptake [26]: Active
- Drug uptake [27]: Active
- Drug uptake [28]: 1.5 %ID/ml
- Ratio [29]: 7.78
- Drug uptake [30]: 0.29 % ID/g
- degraded at 24 h [31]: 5%
- Drug uptake [32]: 0.21 % ID/g
- Drug uptake [33]: 35.24%
- Drug uptake [34]: 0.19 % ID/g
- Drug uptake [35]: 0.92 % ID/g
- Drug uptake [36]: 0.16 % ID/g
- Drug uptake [37]: 1.09 % ID/g
- Drug uptake [38]: 0.14 % ID/g
- Drug uptake [39]: 6.11%
- remaining at 24 h [40]: ≥ 92%
- Drug uptake [41]: Active
Substance: H-HYKHGKDGR-NH2
- hemolysis at 1 h, 100 µM [18]: 7 to 9%
- hemolysis at 1 h [23]: 5 to 6%

From ChEMBL document CHEMBL4257490, “Development of a peptide-based bifunctional chelator conjugated to a cytotoxic drug for the treatment of melanotic melanoma” (Medchemcomm, 2018)
